From patent US11952365B2, “Anti-viral compounds” (Aligos Therapeutics, Inc., priority 2020, dated 2024)
Read-outs that look alike come from different tables or passages of the source.

Experiments:
[1] = in vitro; conditions: African green monkey, VeroE6 + CP (CC50), Vero E6-eGFP cells with CP-100356, absence of virus, MTS
[2] = tested on: SARS-CoV-2-GHB-03021/2020; assay: SARS-CoV-2 Infection Model in Huh7 Cells; format: cell-based; conditions: Severe acute respiratory syndrome coronavirus 2, Huh-7, 96 h, SARS-CoV-2, day 4 p.i., MTS
[3] = tested on: human beta-coronavirus OC43; assay: microbe, parasite or virus in culture; format: cell-based; conditions: Betacoronavirus 1, OC43, HeLa, 144 h
[4] = in vitro; conditions: human
[5] = biological target: T1, human cathepsin L (Homo sapiens, UniProt P07711); assay: cathepsin L assay; format: biochemical; conditions: 10 pM human cathepsin L, Z-FR-AMC 2 μM, class symbols
T1 construct: purchased R&D Systems
Summary of the method: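 Reactions began by adding 2 μM (final) Z-FR-AMC substrate to 10 pM human cathepsin L that had been preincubated 30 min with inhibitor. Kinetic AMC fluorescence at 355/460 nm over 30 min at 2-min intervals; four-parameter fitting gave IC50 values.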

[6] = tested on: SARS-CoV-2-GHB-03021/2020; assay: microbe, parasite or virus in culture; format: cell-based; conditions: Severe acute respiratory syndrome coronavirus 2, Vero C1008, 96 h; read-out: VeroE6 + CP (EC50)
[7] = biological target: HRV3C (Human rhinovirus 14, UniProt P03303); assay: HRV3C protease assay (duplex, SAMDI-MS); format: biochemical, HRV; conditions: 30 mins preincubation
Summary of the method: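 Readout is SAMDI mass spectrometry: biotinylated substrates, products and internal standards were immobilized on neutravidin monolayers and product formation taken as the AUC ratio to internal standard. Reactions ran 30 min at ambient temperature after 30 min compound preincubation, in duplex with 3CLpro. IC50 values came from four-parameter curve fitting.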

[8] = biological target: 3CLpro (Severe acute respiratory syndrome coronavirus 2, UniProt P0DTD1); assay: SARS-CoV-2 3CLpro protease assay (duplex, SAMDI-MS); format: biochemical; parameters: For the duplex assay, 3CLpro and HRV3C was added; conditions: 30 mins preincubation, class symbols
[9] = Cytotoxicity plates without OC43 virus (cell-titer-glo); format: cell-based, human; conditions: human; HeLa cells without OC43 virus, class symbols
Summary of the method: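 Run as a virus-free counterpart of the OC43 cytopathic-effect assay. Attached HeLa cells received compound dilutions in EMEM with 2% FBS and were kept 6 days at 33 °C. Cell viability was then measured by CellTiter-Glo luminescence.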

[10] = 3CLpro, read-out: SARS-Cov-2 IC50
[11] = OC43 in HeLa cells, 6 days at 33° C., class symbols, read-out: EC50
[12] = HRV3C, class symbols, read-out: HRV IC50

| Structure (SMILES) | CC50 ([1]; numeric bounds) [µM] | EC50 ([2]; class symbols) [µM] | EC50 [3] [µM] | CC50 [4] [µM] | IC50 [5] [µM] | EC50 [6] [µM] | IC50 ([7]; HRV IC50, HRV3C, class symbols) [µM] | IC50 [8, 10] [µM] | CC50 at 6 days [9] [µM] | EC50 [3, 11] [µM] | IC50 [7, 12] [µM] | EC50 ([2]; numeric bounds) [µM] | EC50 ([3]; OC43 in HeLa cells, 6 days at 33° C., bound, read-out: EC50) [µM] | IC50 ([7]; HRV3C, bound, read-out: HRV IC50) [µM] | IC50 ([7]; HRV IC50, HRV3C, bound) [µM] | IC50 ([8]; SARS-Cov-2 IC50, 3CLpro) [µM] | CC50 ([1]; class symbols) [µM] |
| --- | --- | --- | --- | --- | --- | --- | --- | --- | --- | --- | --- | --- | --- | --- | --- | --- | --- |
| O=C1NCC[C@H]1C[C@H](NC(=O)[C@@H]1[C@H]2CCC[C@H]2CN1C(=O)c1cc2ccsc2[nH]1)C(=O)CO [Compound 80, (1S,3aR,6aS)—N-[(2S)-4-hydroxy-3-oxo-1-[(3S)-2-oxopyrrolidin-3-yl]butan-2-yl]-2-{6H-thieno[2,3-b]pyrrole-5-carbonyl}-hexahydro-1H-cyclopenta[c]pyrrole-1-carboxamide] | > 50 | 1 to 10 | 1 to 10 | > 50 | ≥ 10 | 1 to 10 | 2 to 20 | 0.02 to 0.2 | > 10 |  |  |  |  |  |  |  |  |
| COc1ccc2[nH]c(C(=O)N3C[C@@H]4CCC[C@@H]4[C@H]3C(=O)N[C@@H](C[C@@H]3CCNC3=O)C(=O)CO)cc2c1OC [Compound 81, (1S,3aR,6aS)-2-(4,5-dimethoxy-1H-indole-2-carbonyl)-N-[(2S)-4-hydroxy-3-oxo-1-[(3S)-2-oxopyrrolidin-3-yl]butan-2-yl]-hexahydro-1H-cyclopenta[c]pyrrole-1-carboxamide] | > 50 | 10 to 100 |  | > 50 | ≥ 10 | 1 to 10 |  | 0.02 to 0.2 | > 10 | 1 to 10 | 2 to 20 |  |  |  |  |  |  |
| O=C1NCC[C@H]1C[C@H](NC(=O)[C@@H]1[C@H]2CCC[C@H]2CN1C(=O)c1cc(S(=O)(=O)c2ccccc2)c[nH]1)C(=O)CO [Compound 82, (1S,3aR,6aS)-2-[4-(benzenesulfonyl)-1H-pyrrole-2-carbonyl]-N-[(2S)-4-hydroxy-3-oxo-1-[(3S)-2-oxopyrrolidin-3-yl]butan-2-yl]-hexahydro-1H-cyclopenta[c]pyrrole-1-carboxamide] | > 50 |  |  | > 50 | ≥ 10 | 10 to 100 |  | 0.02 to 0.2 | > 10 |  | 2 to 20 | > 50 | > 10 |  |  |  |  |
| O=C1NCC[C@H]1C[C@H](NC(=O)[C@@H]1[C@H]2CCC[C@H]2CN1C(=O)c1cc2c([nH]1)CCCC2)C(=O)CO [Compound 83, (1S,3aR,6aS)—N-[(2S)-4-hydroxy-3-oxo-1-[(3S)-2-oxopyrrolidin-3-yl]butan-2-yl]-2-(4,5,6,7-tetrahydro-1H-indole-2-carbonyl)-hexahydro-1H-cyclopenta[c]pyrrole-1-carboxamide] | > 50 | < 1 |  | > 50 | ≥ 10 | < 1 |  | 0.02 to 0.2 | > 10 | 0.1 to 1 |  |  |  | > 10 |  |  |  |
| O=C(c1ccccc1)c1c[nH]c(C(=O)N2C[C@@H]3CCC[C@@H]3[C@H]2C(=O)N[C@@H](C[C@@H]2CCNC2=O)C(=O)CO)c1 [Compound 84, (1S,3aR,6aS)-2-(4-benzoyl-1H-pyrrole-2-carbonyl)-N-[(2S)-4-hydroxy-3-oxo-1-[(3S)-2-oxopyrrolidin-3-yl]butan-2-yl]-hexahydro-1H-cyclopenta[c]pyrrole-1-carboxamide] | > 50 |  |  | > 50 | ≥ 10 | 1 to 10 |  | 0.02 to 0.2 | > 10 | 1 to 10 | 2 to 20 | > 50 |  |  |  |  |  |
| CCOC(=O)c1cc(C(=O)N2C[C@@H]3CCC[C@@H]3[C@H]2C(=O)N[C@@H](C[C@@H]2CCNC2=O)C(=O)CO)[nH]c1C [Compound 85, ethyl 5-[(1S,3aR,6aS)-1-{[(2S)-4-hydroxy-3-oxo-1-[(3S)-2-oxopyrrolidin-3-yl]butan-2-yl]carbamoyl}-hexahydro-1H-cyclopenta[c]pyrrole-2-carbonyl]-2-methyl-1H-pyrrole-3-carboxylate] | > 50 | 10 to 100 |  | > 50 | ≥ 10 | 1 to 10 |  | 0.02 to 0.2 | > 10 | 1 to 10 | 2 to 20 |  |  |  |  |  |  |
| CC(=O)c1c[nH]c(C(=O)N2C[C@@H]3CCC[C@@H]3[C@H]2C(=O)N[C@@H](C[C@@H]2CCNC2=O)C(=O)CO)c1 [Compound 86, (1S,3aR,6aS)-2-(4-acetyl-1H-pyrrole-2-carbonyl)-N-[(2S)-4-hydroxy-3-oxo-1-[(3S)-2-oxopyrrolidin-3-yl]butan-2-yl]-hexahydro-1H-cyclopenta[c]pyrrole-1-carboxamide] | > 50 | 10 to 100 |  | > 50 | ≥ 10 | 10 to 100 |  | 0.02 to 0.2 | > 10 | 1 to 10 | 2 to 20 |  |  |  |  |  |  |
| O=C1NCC[C@H]1C[C@H](NC(=O)[C@@H]1[C@H]2CCC[C@H]2CN1C(=O)c1cc2c(OC(F)F)cccc2[nH]1)C(=O)CO [Compound 87, (1S,3aR,6aS)-2-[4-(difluoromethoxy)-1H-indole-2-carbonyl]-N-[(2S)-4-hydroxy-3-oxo-1-[(3S)-2-oxopyrrolidin-3-yl]butan-2-yl]-hexahydro-1H-cyclopenta[c]pyrrole-1-carboxamide] | > 100 | 1 to 10 |  | > 10 | ≥ 10 | < 1 |  | < 0.02 | > 10 | < 0.1 | 2 to 20 |  |  |  |  |  |  |
| COc1cc(Cl)cc2[nH]c(C(=O)N3C[C@@H]4CCC[C@@H]4[C@H]3C(=O)N[C@@H](C[C@@H]3CCNC3=O)C(=O)CO)cc12 [Compound 88, (1S,3aR,6aS)-2-(6-chloro-4-methoxy-1H-indole-2-carbonyl)-N-[(2S)-4-hydroxy-3-oxo-1-[(3S)-2-oxopyrrolidin-3-yl]butan-2-yl]-hexahydro-1H-cyclopenta[c]pyrrole-1-carboxamide] | > 100 | < 1 |  | > 10 | ≥ 10 | < 1 |  | < 0.02 | > 10 | < 0.1 | 2 to 20 |  |  |  |  |  |  |
| COc1ccc(Cl)c2[nH]c(C(=O)N3C[C@@H]4CCC[C@@H]4[C@H]3C(=O)N[C@@H](C[C@@H]3CCNC3=O)C(=O)CO)cc12 [Compound 89, (1S,3aR,6aS)-2-(7-chloro-4-methoxy-1H-indole-2-carbonyl)-N-[(2S)-4-hydroxy-3-oxo-1-[(3S)-2-oxopyrrolidin-3-yl]butan-2-yl]-hexahydro-1H-cyclopenta[c]pyrrole-1-carboxamide] | > 100 | < 1 |  | > 50 | ≥ 10 | < 1 |  |  | > 10 | 0.1 to 1 |  |  |  |  | > 10 | < 0.02 |  |
| O=C1NCC[C@H]1C[C@H](NC(=O)[C@@H]1[C@H]2CCC[C@H]2CN1C(=O)c1cc2c(Cl)cc(F)cc2[nH]1)C(=O)CO [Compound 90, (1S,3aR,6aS)-2-(4-chloro-6-fluoro-1H-indole-2-carbonyl)-N-[(2S)-4-hydroxy-3-oxo-1-[(3S)-2-oxopyrrolidin-3-yl]butan-2-yl]-hexahydro-1H-cyclopenta[c]pyrrole-1-carboxamide] | > 100 | < 1 |  | > 50 | ≥ 10 | < 1 |  | < 0.02 | > 10 | < 0.1 | 2 to 20 |  |  |  |  |  |  |
| O=C1NCC[C@H]1C[C@H](NC(=O)[C@@H]1[C@H]2CCC[C@H]2CN1C(=O)c1cc2c(Cl)cc(Cl)cc2[nH]1)C(=O)CO [Compound 91, (1S,3aR,6aS)-2-(4,6-dichloro-1H-indole-2-carbonyl)-N-[(2S)-4-hydroxy-3-oxo-1-[(3S)-2-oxopyrrolidin-3-yl]butan-2-yl]-hexahydro-1H-cyclopenta[c]pyrrole-1-carboxamide] |  | < 1 |  | > 10 | ≥ 10 | < 1 |  | < 0.02 | > 10 | < 0.1 | 2 to 20 |  |  |  |  |  | > 10 |
